Source: ChEMBL document CHEMBL1141203, “Transforming bivalent ligands into retractable enzyme inhibitors through polypeptide-protein interactions” (Bioorg Med Chem Lett, 2005)

Target: Prothrombin (Homo sapiens, UniProt P00734)
Assay: Inhibitory activity against human thrombin by amidolytic assay using chromogenic S-2238 substrate
Type: functional

With `CC[C@H](C)[C@H](NC(=O)[C@H](CCC(=O)O)NC(=O)[C@H](CCC(=O)O)NC(=O)[C@H](Cc1ccccc1)NC(=O)[C@H](CC(=O)O)NC(=O)CNC(=O)[C@H](CO)NC(=O)CNC(=O)[C@H](CO)NC(=O)CNC(=O)[C@H]1CCCCN1C(=O)[C@H](CCCN=C(N)N)NS(=O)(=O)c1ccc(C(C)(C)C)cc1)C(=O)N1CCC[C@H]1C(=O)N[C@@H](CCC(=O)O)C(=O)N[C@@H](CCC(=O)O)C(=O)N[C@@H](Cc1ccc(O)cc1)C(=O)N[C@@H](CC(C)C)C(=O)N[C@@H](CCC(N)=O)C(=O)O` as the molecule, how does the Ki read?
Its Ki is 36 nM.

Which Ki does the source give for `CC[C@H](C)C[C@H](NC(=O)[C@H](CC(C)C)NC(=O)[C@H](CCCCN)NC(=O)[C@H](CCC(N)=O)NC(=O)[C@H](CCC(=O)O)NC(=O)CNC(=O)[C@H]1CCCCN1C(=O)[C@H](CCCN=C(N)N)NS(=O)(=O)c1ccc(C(C)(C)C)cc1)C(=O)N[C@@H](CO)C(=O)N[C@@H](CCC(=O)O)C(=O)N[C@@H](CCC(=O)O)C(=O)N[C@@H](CC(=O)O)C(=O)N[C@@H](CC(C)C)C(=O)NCC(=O)N[C@@H](CC(=O)O)C(=O)N[C@@H](Cc1ccccc1)C(=O)N[C@@H](CCC(=O)O)C(=O)N[C@@H](CCC(=O)O)C(=O)N[C@H](C(=O)N1CCC[C@H]1C(=O)N[C@@H](CCC(=O)O)C(=O)N[C@@H](CCC(=O)O)C(=O)N[C@@H](Cc1ccc(O)cc1)C(=O)N[C@@H](CC(C)C)C(=O)N[C@@H](CCC(N)=O)C(=O)O)[C@@H](C)CC` here?
The Ki was 66 nM.
